Laboratory results reported in US12564553B2, “Suspension containing heterocyclidene acetamide derivative” (SENJU PHARMACEUTICAL CO., LTD., priority 2021, dated 2026).

Experiment: Stability of Compound (1) in nonionic surfactant solution (content retention rate, liquid chromatography)
Type: physicochemical
Settings: aqueous solution in glass ampoule stored at 25° C. for 1 month (1M)
Experimental: As used herein, the term “stability” refers to the degree to which the content of (E)-2-(7-trifluoromethylchroman-4-ylidene)-N-(7-hydroxy-5,6,7,8-tetrahydronaphthalen-1-yl)acetamide, or a pharmaceutically acceptable salt or solvate thereof, dissolved and/or suspended in an aqueous suspension is maintained without being altered by decomposition or the like after storage for a certain period of time. In addition, as used herein, the “stability” is evaluated by the content maintenance ratio, which is the ratio of the content of (E)-2-(7-trifluoromethylchroman-4-ylidene)-N-(7-hydroxy-5,6,7,8-tetrahydronaphthalen-1-yl)acetamide, or a pharmaceutically acceptable salt or solvate thereof, in the aqueous suspension agent stored for a certain period after preparation to the content of (E)-2-(7-trifluoromethylchroman-4-ylidene)-N-(7-hydroxy-5,6,7,8-tetrahydronaphthalen-1-yl)acetamide, or a pharmaceutically acceptable salt or solvate thereof, in the aqueous suspension agent immediately after preparation. Typically, this evaluation is determined by evaluating the content retention rate of (E)-2-(7-trifluoromethylchroman-4-ylidene)-N-(7-hydroxy-5,6,7,8-tetrahydronaphthalen-1-yl)acetamide, or a pharmaceutically acceptable salt or solvate thereof, dissolved in the aqueous suspension agent. […]

## O=C(/C=C1\CCOc2cc(C(F)(F)F)ccc21)Nc1cccc2c1C[C@H](O)CC2 [Compound (1), (E)-2-(7-trifluoromethylchroman-4-ylidene)-N-((7R)-7-hydroxy-5,6,7,8-tetrahydronaphthalen-1-yl)acetamide]
  content retention rate (to display ratio %): 100%
